Bases are written 5' to 3'; sugars and linkages follow in the same order, as letters with counts (s phosphorothioate, o phosphodiester; PS: all linkages phosphorothioate). The collection does not say whether C is 5-methylated. l = locked nucleic acid (LNA); d = 2'-deoxy (DNA)

In the data set the target is Tau. As to the kind of experiment: rat primary cortical neurons, FLIPR, 25 uM ASO.
As to “CAATTTGGAAAGATGAAATT (sugars l3 d14 l3, PS)”, the calcium oscillation score was 3.89 % of control. As to AACCACTCTAACATCTT (sugars l4 d9 l4, PS), the calcium oscillation score was 88.3 % of control. Consider GTAACCAACTTTCATC (sugars l3 d9 l4, PS), for which the calcium oscillation score was 74.8 % of control. Then CCTCGTCAGCTAGCGT (sugars l3 d10 l3, PS), with 76 % of control. As for “TTTGAAGTCCCGAGCCAAAG (sugars l3 d14 l3, PS)”, the figure is 0 % of control; as for “CACATTTGCAAACCACA (sugars l3 d10 l4, PS)”, 67.4 % of control. As for TAATCCTACCACCAGA (sugars l2 d10 l4, PS), the calcium oscillation score is 86 % of control. As for “CAGACACCACTGGCGACTTG (sugars l3 d14 l3, PS)”, the figure is 46.5 % of control; as for GGCGCAGGCGCGAGCA (sugars l3 d10 l3, PS), 7.62 % of control. As for TTACACCACACTGTCG (sugars l3 d10 l3, PS), the figure is 32.1 % of control; as for “CGACTTATCTATCCATCT (sugars l2 d12 l4, PS)”, 45.8 % of control. In the case of “TTTATTTCCAAATTCACTTT (sugars ldlllddddddddddlldll, PS)”, the calcium oscillation score is 83.1 % of control. As for “TCGAAACCAAGGTCCCACCA (sugars l3 d14 l3, PS)”, the figure is 28.2 % of control; as for CCAAGAGGCACAAGTC (sugars l3 d10 l3, PS), 74.3 % of control. As for “CCCCATTTTTGACATAT (sugars l2 d12 l3, PS)”, the figure is 73.1 % of control; as for GTAGACTATTTGCAC (sugars l3 d9 l3, PS), 95.2 % of control.

As to “AGGTCAACTGGTTTGTAGAC (sugars l3 d14 l3, PS)”, the calcium oscillation score is 0 % of control. As for ATCTTCGACTGGACTC (sugars l3 d10 l3, PS), the figure is 59.7 % of control. As for “CAGATTCCCCAACTCACA (sugars l2 d14 l2, PS)”, the figure is 71.5 % of control; as for “TCTTAGCATCAGAGGTTTCA (sugars l3 d14 l3, PS)”, 18.5 % of control. Turning to “CCAGATTCCCCAACTCA (sugars l2 d12 l3, PS)”, the calcium oscillation score is 76.7 % of control. As for “CATCTTCCTTTAGTTTT (sugars l4 d10 l3, PS)”, the figure is 50.9 % of control; as for “CAACAATCCAACCACTAAA (sugars l4 d11 l4, PS)”, 89.8 % of control; as for TGTACACGATCTCCGC (sugars l3 d10 l3, PS), 145 % of control.

As for “TCAAATCAATTCTCATTTCA (sugars l3 d13 l4, PS)”, the calcium oscillation score was 62 % of control.

As for “ATTCTCAGCACACCATT (sugars l4 d11 l2, PS)”, the calcium oscillation score was 41.3 % of control.

Regarding “TCATCACCAAGTCCCAA (sugars l2 d12 l3, PS)”, the calcium oscillation score is 61.7 % of control. Then “TTTTACCAATTTGCCTA (sugars l2 d11 l4, PS)”, with 46.2 % of control; and “TTATTTCCAAATTCACTTTT (sugars ldlllddddddddddlldll, PS)”, with 70.3 % of control; and “TAGTTATACAGTTGGCCCTA (sugars l3 d14 l3, PS)”, with 19.1 % of control.

Regarding “TCAAAATCCTTAATTTAACC (sugars l4 d12 l4, PS)”, the calcium oscillation score is 70.7 % of control. As for “GAGCCACACTTGGAGGTCAC (sugars l3 d14 l3, PS)”, the figure is 0 % of control; as for “CCCATCAATTTGGAAAGATG (sugars l3 d14 l3, PS)”, 58.1 % of control; as for “CTACTATTTACTATGCA (sugars l4 d10 l3, PS)”, 78.4 % of control.

In the case of GCGGAAGGTCAGCTTG (sugars l3 d10 l3, PS), the calcium oscillation score was 25.9 % of control. Then “TTAACTCATCAACACCTTT (sugars l3 d12 l4, PS)”, with 84 % of control; and AGTTTGTGCAAGGTC (sugars l3 d9 l3, PS), with 0 % of control. As for “TAGTAAACACCATCTCT (sugars l3 d10 l4, PS)”, the figure is 71.4 % of control; as for ACCCATTATCTGCTCC (sugars l3 d11 l2, PS), 50.9 % of control; as for “CTCACTTTACACATTAAATT (sugars l4 d12 l4, PS)”, 59.8 % of control. Then CTCGCGGAAGGTCAGC (sugars l3 d10 l3, PS), with 0 % of control; and TCTTCAGGTCTGGCAT (sugars l3 d10 l3, PS), with 39.1 % of control; and “TTTGCTTCACACACCAC (sugars l2 d12 l3, PS)”, with 89 % of control. “ACAAACAATCCATTTATAT (sugars l4 d11 l4, PS)”: the calcium oscillation score is 46.2 % of control. As for AAGTCCCGAGCCAAA (sugars l3 d9 l3, PS), the figure is 102 % of control. As for TGATGCAGGAGTTGTA (sugars l3 d10 l3, PS), the figure is 7.62 % of control; as for “TGCTTTTCCCAATTATT (sugars l3 d11 l3, PS)”, 69.5 % of control.

Regarding “CTTTATTTCCAAATTCAC (sugars lldlddddddddddldll, PS)”, the calcium oscillation score was 136 % of control.

As for “AGTCTACCATGTCGATGCTG (sugars l3 d14 l3, PS)”, the calcium oscillation score is 71.2 % of control. Consider “CCTTTGTAATTCCTTCTC (sugars l3 d13 l2, PS)”, for which the calcium oscillation score was 53.4 % of control. As for “AACATCTAAACACCTCAATC (sugars l4 d12 l4, PS)”, the figure is 77.6 % of control; as for “ACTTTATCCCTCCATGA (sugars l3 d11 l3, PS)”, 39.6 % of control; as for “CTTTATTCCCTTAACAATAT (sugars l3 d14 l3, PS)”, 74.6 % of control. As for “TTATTTACACTGTCCTT (sugars l3 d10 l4, PS)”, the figure is 54.1 % of control; as for “TCTTAGTCATCTTCCCT (sugars l3 d12 l2, PS)”, 68.6 % of control; as for ACATCTCTCTAGACAT (sugars l4 d9 l3, PS), 59.5 % of control. As for GGTCTGGCATGGGC (sugars l3 d8 l3, PS), the figure is 0 % of control; as for CTTACACATAGCTTCT (sugars l4 d8 l4, PS), 47.1 % of control; as for CCCTGAAACCATTAAC (sugars l3 d9 l4, PS), 70.2 % of control.

Consider GAAAGAGGGCAGCAGG (sugars l3 d10 l3, PS), for which the calcium oscillation score was 0 % of control. As for “TATTTCCAAATTCACTTTTA (sugars l4 d11 l5, PS)”, the figure is 172 % of control; as for “GTTAGCCCTAAAGTCCCAGG (sugars l3 d14 l3, PS)”, 27.9 % of control; as for “CCTTTTAAAAGAACCCT (sugars l3 d11 l3, PS)”, 96 % of control. Then “TTTATTTCCAAATTCACTTT (sugars l2 d16 l2, PS)”, with 141 % of control; and “AACCACTCTTATTCTTTAA (sugars l4 d11 l4, PS)”, with 77.1 % of control. As for “GGGAGATTCTTTCAGGCCAG (sugars l3 d14 l3, PS)”, the figure is 48.1 % of control; as for “AACACCTTTTAATTCATT (sugars l4 d10 l4, PS)”, 74.8 % of control. As for “CACTTTACACATTAAATTTA (sugars l4 d12 l4, PS)”, the calcium oscillation score was 60.9 % of control. As for “CATTTCTGGAAGGTTCTTTC (sugars l3 d14 l3, PS)”, the figure is 23.9 % of control. Then “CTTTATTTCCAAATTCACTT (sugars l2 d1 l2 d11 l4, PS)”, with 0 % of control; and CGTGGTCTGTCTTGGC (sugars l3 d10 l3, PS), with 19 % of control; and AATTTCACCCTCAGTA (sugars l3 d10 l3, PS), with 73 % of control. Then GCGAGTCTACCATGTC (sugars l3 d10 l3, PS), with 76 % of control; and “CCAGCGTGATCTTCCATCAC (sugars l5 d11 l4, PS)”, with 91.6 % of control. As for AGCATCAGAGGTTTCA (sugars l3 d10 l3, PS), the calcium oscillation score is 0 % of control.

TTACACCATCCAAGTC (sugars l4 d9 l3, PS): the calcium oscillation score was 101 % of control.

In the case of “CCACACTTGGAGGTCACCTT (sugars l3 d14 l3, PS)”, the calcium oscillation score is 4.52 % of control.

Turning to “GTCTTTGCTTTTACTGACCA (sugars l3 d14 l3, PS)”, the calcium oscillation score is 44.4 % of control.

Turning to “CAATCCATTTATATTCTTTT (sugars l4 d12 l4, PS)”, the calcium oscillation score was 63.2 % of control. As for CTACCATGTCGATG (sugars l3 d8 l3, PS), the figure is 6.9 % of control; as for AGTCTACCATGTCGAT (sugars l3 d10 l3, PS), 69.1 % of control. As for TGTTTGATATTATCCT (sugars l3 d10 l3, PS), the figure is 104 % of control; as for “GGCGACTTGTACACGATCTC (sugars l3 d14 l3, PS)”, 46.6 % of control. Then “GGCCTGATCACAAACCCTGC (sugars l3 d14 l3, PS)”, with 9.07 % of control; and GTCATCGCTTCCAGTC (sugars l3 d10 l3, PS), with 85.7 % of control; and “AATTCATAAATGACTATACT (sugars l3 d14 l3, PS)”, with 40.3 % of control. On to CATGATCTTAGGCTGG (sugars l3 d10 l3, PS), for which the calcium oscillation score was 7.83 % of control. As for “TATTAATTCATAAATGACTA (sugars l3 d14 l3, PS)”, the figure is 40.3 % of control.

As to “TGAGCCACACTTGGAGGTCA (sugars l3 d14 l3, PS)”, the calcium oscillation score is 4.52 % of control. Turning to “TATTTCCAAATTCACTTTTA (sugars llldldddddddddlddlll, PS)”, the calcium oscillation score is 125 % of control. Then “AAGTCCCGAGCCAAAGCCGA (sugars l3 d14 l3, PS)”, with 0 % of control; and AGGCATGATTGTGGGC (sugars l3 d10 l3, PS), with 0 % of control; and “GTTTTCAAACACACCTT (sugars l3 d10 l4, PS)”, with 104 % of control. Turning to “CTTTTTTTTTCCACACTCTC (sugars l2 d14 l4, PS)”, the calcium oscillation score was 49 % of control. Then “TATTTCCAAATTCACTTTTA (sugars lldldldddddddddldlll, PS)”, with 129 % of control.
